Where two headings read alike, the source gives them in different places.
Assays:
[1] = test system: SW620 human colorectal cancer cells; test: MTT based cell viability assay: potentiation of the growth inhibiting activity of MMS
Procedure: Briefly, SW620 human colorectal cancer cells were used to measure the cell growth inhibiting activity of DNA alkylating anticancer drug MMS. […] SW620 cells were grown and maintained in RPMI1640 (Gibco) medium supplemented with 10% FBS (Hyclone). In the first day of experiment, 4000 cells were seeded to each well of a 96-well cell culture plate and incubated at 37° C. and 5% CO2 in a cell culture incubator overnight. In the next day, the cell culture medium was removed. […] The serial dilutions of the reference compounds and the compounds to be tested were made with a 1:3 and 1:10 fashion in DMSO. The 10-fold concentrated solutions of these compounds were made by mixing 10 μl of the serial dilutions in DMSO with 90 μl fresh medium. The final concentration of DMSO in the medium was 1%. The cells were incubated at 37° C. in 5% CO2 cell culture incubator for additional 5 days (120 hours). Afterwards, the 96-well cell culture plate was taken out and 20 μl of MTT solution was added to each well and incubated at 37° C. for 4 h. The medium was removed and 100 μl DMSO was added to each well. The 96-well cell culture plates were shaked adequately for 10 min and read in a Varioskan Flash plate reader (Thermo Fisher Scientific) at 520 and 690 nm. The data were analyzed by Prism 5 software (GraphPad). The obtained 520 nm absorbance readings subtracting corresponding 690 nm reading were analyzed and plotted against the Log scale of the compound concentrations.

[2] = test system: Human breast cancer cell line T47D; test: Cell based caspase-3 activity assay: potentiation of MMS induced apoptosis; conditions: T47D cells, 11.1 μg/ml MMS, 24 hours, intracellular caspase-3 activity, read-out: EC50 (nM), potentiation of the apoptosis inducing activity of MMS
How it was run: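 T47D cells were exposed for 24 h to compound plus a minimally apoptotic MMS dose (medium containing 11.1 μg/ml MMS). Lysates were incubated 3 h at 37 °C with (Ac-DEVD)2-R110 caspase-3 substrate (20 μM in added buffer) and read at ex 496/em 520 nm. EC50 came from a sigmoidal fit of RFU versus log concentration.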

[3] = Homo sapiens, SW-620, 120 h, read-out: IC50 (nM), potentiation of the growth inhibiting activity of MMS, SW620 cells, 1.7 μg/ml MMS, 5 days (120 hours), MTT

| Compound | IC50 [1, 3] [nM] | EC50 ([2]; Homo sapiens, T47D, 24 h) [nM] | IC50 ([1]; read-out: IC50 (nM), potentiation of the growth inhibiting activity of MMS, SW620 cells, 1.7 μg/ml MMS, 5 days (120 hours), MTT) [nM] | EC50 [2] [nM] |
| --- | --- | --- | --- | --- |
| COC(=O)c1cc(Cn2c(=O)[nH]c(=O)c3ccccc32)ccc1F [Example 21, 1-(4-Fluoro-3-methoxycarbonylbenzyl)quinazoline-2,4(1H,3H)-dione] | > 10000 | 5800 | – | – |
| O=C(c1cc(F)cc(Cn2c(=O)[nH]c(=O)c3ccccc32)c1)N1CCN(c2ncccn2)CC1 [Example 63, 1-(5-Fluoro-3-(4-(pyrimidin-2-yl)piperazine-1-carbonyl)benzyl)quinazoline-2,4(1H,3H)-dione] | 50 | 15 | – | – |
| O=C(c1ccc(Cn2c(=O)[nH]c(=O)c3ccccc32)cc1)N1CCN(C(=O)C2CCCC2)CC1 [Example 99, 1-(4-(4-(Cyclopentylcarbonyl)piperazine-1-carbonyl)benzyl)quinazoline-2,4(1H,3H)-dione] | > 10000 | > 10000 | – | – |
| O=C(c1cccc(Cn2c(=O)[nH]c(=O)c3ccccc32)c1F)N1CCN(c2ncccn2)CC1 [Example 61, 1-(2-Fluoro-3-(4-(pyrimidin-2-yl)piperazine-1-carbonyl)benzyl)quinazoline-2,4(1H,3H)-dione] | 61 | 17 | – | – |
| O=C(c1ccco1)N1CCN(C(=O)c2cc(Cn3c(=O)[nH]c(=O)c4ccccc43)ccc2F)CC1 [Example 47, 1-(4-Fluoro-3-(4-(furan-2-carbonyl)piperazine-1-carbonyl)benzyl)quinazoline-2,4(1H,3H)-dione] | 54 | 2.6 | – | – |
| O=C(c1ccc(F)c(Cn2c(=O)[nH]c(=O)c3c(Cl)cccc32)c1)N1CCN(C(=O)C2CCCCC2)CC1 [Example 108, 5-Chloro-1-(3-(4-(cyclohexylcarbonyl)piperazine-1-carbonyl)-6-fluorobenzyl)quinazoline-2,4(1H,3H)-dione] | 78 | 68 | – | – |
| O=C(c1ccc(Cn2c(=O)[nH]c(=O)c3ccccc32)o1)N1CCN(c2nsc3ccccc23)CC1 [Example 68, 1-((2-(4-(Benzo[d]isothiazol-3-yl)piperazine-1-carbonyl)furan-5-yl)methyl)quinazoline-2,4(1H,3H)-dione] | 673 | 635 | – | – |
| O=C(c1cccc(Cn2c(=O)[nH]c(=O)c3ccccc32)c1)N1CCN(C(=O)C2CCOCC2)CC1 [Example 13, 1-(3-(4-(Tetrahydro-2H-pyran-4-carbonyl)piperazine-1-carbonyl)benzyl)quinazoline-2,4(1H,3H)-dione] | 727 | 6600 | – | – |
| COc1ccc(C(=O)N2CCN(C(=O)c3cccc(Cn4c(=O)[nH]c(=O)c5ccccc54)c3)CC2)cc1 [Example 12, 1-(3-(4-(4-Methoxybenzoyl)piperazine-1-carbonyl)benzyl)quinazoline-2,4(1H,3H)-dione] | 533 | 318 | – | – |
| O=C(c1ccc(Br)cc1)N1CCN(C(=O)c2ccc(Cn3c(=O)[nH]c(=O)c4ccccc43)cc2)CC1 [Example 98, 1-(4-(4-(4-Bromobenzoyl)piperazine-1-carbonyl)benzyl)quinazoline-2,4(1H,3H)-dione] | > 10000 | > 10000 | – | – |
| C[C@]1(c2nc3c(C(N)=O)cccc3[nH]2)CCCN1 [ABT-888, reference compound] | – | – | 2640 | 3490 |
| O=C(c1cccnc1)N1CCN(C(=O)c2cccc(Cn3c(=O)[nH]c(=O)c4ccccc43)c2)CC1 [Example 36, 1-(3-(4-(Pyridine-3-carbonyl)piperazine-1-carbonyl)benzyl)quinazoline-2,4(1H,3H)-dione] | > 10000 | > 10000 | – | – |
| Cc1ccc2c(c1)c(=O)[nH]c(=O)n2Cc1cccc(C(=O)N2CCN(C(=O)C3CCCC3)CC2)c1 [Example 82, 1-(3-(4-(Cyclopentylcarbonyl)piperazine-1-carbonyl)benzyl)-6-methylquinazoline-2,4(1H,3H)-dione] | 459 | 154 | – | – |

Results, then the molecule that gave them:

| IC50 [1, 3] [nM] | EC50 ([2]; Homo sapiens, T47D, 24 h) [nM] | IC50 ([1]; read-out: IC50 (nM), potentiation of the growth inhibiting activity of MMS, SW620 cells, 1.7 μg/ml MMS, 5 days (120 hours), MTT) [nM] | EC50 [2] [nM] | Compound |
| --- | --- | --- | --- | --- |
| > 10000 | > 10000 | – | – | COc1ccc(CC(=O)Nc2cccc(Cn3c(=O)[nH]c(=O)c4ccccc43)c2)cc1OC [Example 197, 1-(3-(3,4-Dimethoxyphenyl)acetamidobenzyl)quinazoline-2,4(1H,3H)-dione] |
| 28 | 14 | – | – | O=C(c1ccc(F)c(Cn2c(=O)[nH]c(=O)c3c(F)cccc32)c1)N1CCN(C(=O)c2cccs2)CC1 [Example 156, 5-Fluoro-1-(6-fluoro-3-(4-(thiophene-2-carbonyl)piperazine-1-carbonyl)benzyl)quinazoline-2,4(1H,3H)-dione] |
| 19 | 23 | – | – | O=C(c1cccc(Cn2c(=O)[nH]c(=O)c3cc(Cl)ccc32)c1)N1CCN(C(=O)c2cccs2)CC1 [Example 115, 6-Chloro-1-(3-(4-(thiophene-2-carbonyl)piperazine-1-carbonyl)benzyl)quinazoline-2,4(1H,3H)-dione] |
| > 10000 | > 10000 | – | – | O=C(c1cccc(Cn2c(=O)[nH]c3ccccc3c2=O)c1)N1CCN(c2ncccn2)CC1 [Example 228, 3-(3-(4-(Pyrimidin-2-yl)piperazine-1-carbonyl)benzyl)quinazoline-2,4(1H,3H)-dione] |
| 394 | 261 | – | – | Cc1cccc2c1c(=O)[nH]c(=O)n2Cc1cccc(C(=O)N2CCN(C(=O)C3CCCC3)CC2)c1 [Example 160, 1-(3-(4-(Cyclopentylcarbonyl)piperazine-1-carbonyl)benzyl)-5-methylquinazoline-2,4(1H,3H)-dione] |
| 51 | 19 | – | – | O=C(c1cccc(Cn2c(=O)[nH]c(=O)c3cc(Cl)ccc32)c1)N1CCN(c2ccccn2)CC1 [Example 114, 6-Chloro-1-(3-(4-(pyridin-2-yl)piperazine-1-carbonyl)benzyl)quinazoline-2,4(1H,3H)-dione] |
| 2.6 | 3.2 | – | – | O=C(c1cccc(Cn2c(=O)[nH]c(=O)c3cccc(O)c32)c1)N1CCN(c2ncccn2)CC1 [Example 230, 8-Hydroxy-1-(3-(4-(pyrimidin-2-yl)piperazine-1-carbonyl)benzyl)quinazoline-2,4(1H,3H)-dione] |
| 985 | > 10000 | – | – | O=C(Cc1ccc2ccccc2c1)Nc1cccc(Cn2c(=O)[nH]c(=O)c3ccccc32)c1 [Example 196, 1-(3-(Naphthalen-2-yl)acetamidobenzyl)quinazoline-2,4(1H,3H)-dione] |
| > 10000 | 743 | – | – | O=C(c1cccc(Cn2c(=O)[nH]c(=O)c3ccccc32)c1)N1CCN(C2CCCC2)CC1 [Example 177, 1-(3-(4-Cyclopentylpiperazine-1-carbonyl)benzyl)quinazoline-2,4(1H,3H)-dione] |
| 517 | 654 | – | – | O=C(c1cc(Cn2c(=O)[nH]c(=O)c3c(F)cccc32)ccc1F)N1CCC(c2ccccc2)CC1 [Example 214, 5-Fluoro-1-(4-fluoro-3-(4-phenylpiperidine-1-carbonyl)benzyl)quinazoline-2,4(1H,3H)-dione] |
| > 10000 | > 10000 | – | – | COc1cccc2c1c(=O)[nH]c(=O)n2Cc1cccc(C(=O)N2CCN(c3ncccn3)CC2)c1 [Example 203, 5-Methoxy-1-(3-(4-(pyrimidin-2-yl)piperazine-1-carbonyl)benzyl)quinazoline-2,4(1H,3H)-dione] |
| 3.4 | 4.1 | – | – | O=C(c1cccs1)N1CCN(C(=O)c2cc(Cn3c(=O)[nH]c(=O)c4cc(F)ccc43)ccc2F)CC1 [Example 146, 6-Fluoro-1-(4-fluoro-3-(4-(thiophene-2-carbonyl)piperazine-1-carbonyl)benzyl)quinazoline-2,4(1H,3H)-dione] |
| 15 | 87 | – | – | O=C(c1cccc(Cn2c(=O)[nH]c(=O)c3c(F)cccc32)c1)N1CCN(c2ccccn2)CC1 [Example 130, 5-Fluoro-1-(3-(4-(pyridin-2-yl)piperazine-1-carbonyl)benzyl)quinazoline-2,4(1H,3H)-dione] |
| 16 | 14 | – | – | O=C(c1cc(F)cc(Cn2c(=O)[nH]c(=O)c3cc(Cl)ccc32)c1)N1CCN(c2ncccn2)CC1 [Example 175, 6-Chloro-1-(5-fluoro-3-(4-(pyrimidin-2-yl)piperazine-1-carbonyl)benzyl)quinazoline-2,4(1H,3H)-dione] |
| 228 | 122 | – | – | O=C(c1ccc(F)c(Cn2c(=O)[nH]c(=O)c3c(Cl)cccc32)c1)N1CCN(c2ccccn2)CC1 [Example 173, 5-Chloro-1-(6-fluoro-3-(4-(pyridin-2-yl)piperazine-1-carbonyl)benzyl)quinazoline-2,4(1H,3H)-dione] |
| > 10000 | > 10000 | – | – | COc1ccc2c(c1)c(=O)[nH]c(=O)n2Cc1cccc(C(=O)N2CCN(c3ncccn3)CC2)c1 [Example 204, 6-Methoxy-1-(3-(4-(pyrimidin-2-yl)piperazine-1-carbonyl)benzyl)quinazoline-2,4(1H,3H)-dione] |
| > 10000 | > 10000 | – | – | O=C(c1cccc(Cn2c(=O)[nH]c(=O)c3ccccc32)c1)c1ccc2nncn2c1 [Example 198, 1-(3-([1,2,4]Triazolo[4,3-a]pyridine-6-carbonyl)benzyl)quinazoline-2,4(1H,3H)-dione] |
| 6.2 | 2.1 | – | – | O=C(c1ccccc1)N1CCN(C(=O)c2cc(Cn3c(=O)[nH]c(=O)c4cc(Cl)ccc43)ccc2F)CC1 [Example 164, 6-Chloro-1-(3-(4-benzoylpiperazine-1-carbonyl)-4-fluorobenzyl)quinazoline-2,4(1H,3H)-dione] |
